Consider one compound from patent US6492325B1, “Use of α1β1 integrin receptor inhibitors and TGF-β1 inhibitors in the treatment of kidney disease” (Boys Town National Research Hospital, priority 1998, dated 2002).

Series [1] deals with double knockout mice. Put plainly: Immunoperoxidase staining for collagen type I and fibronectin in tubulointerstitium of double knockout mice. The format is in vivo, mouse. Conditions: 10 week old double knockout mice. From the text: E. Immunoperoxidase Detection: The immunoperoxidase detection method was used in immunostaining for TGF-β1 in glomeruli as well as fibronectin and collagen type I in tubunointerstitium. The collagen type I antibody is rabbit anti-mouse, and was purchased from Biogenesis, Inc. (Sandown, N.H.). The antisera was used at a 1:100 dilution for immunoperoxidase staining. The fibronectin antibody used was the same as for immunfluorescence staining (a rabbit anti-human fibronectin antisera from Sigma Chemical Company, St. Louis, Mo.), and was used at a 1:100 dilution. […]
(§1) Mice (DKO mice are null for both the collagen α3(IV) and integrin α1 genes) were injected with TGF-β1 inhibitors FK506 (2 μg/gram body weight, twice weekly, intraperitoneal injections) or Biogen's TGF-β1 soluble receptor (25 μg per injection, twice weekly, intravenous injections) starting at four weeks of age. The kidneys were taken at 10 weeks of age and analyzed. […]
The role of TGF-β1 in upregulation of matrix proteins and in renal fibrosis has been well established (Yang et al., J. Am. Soc. Nephrol., 5:1610-1617, 1995; Border and Ruoslahti, J. Clin. Invest., 90:1-7, 1992). […] Animals injected with TGF-β1 inhibitors were analyzed using three markers for interstitial fibrosis and compared directly with 10 week old double knockout animals that were not treated with inhibitors. […]

Series [2] deals with double knockout (DKO) mice. Put plainly: TGF-β1 inhibitors in double knockout mice, transmission electron microscopy of GBM ultrastructure. The format is in vivo, mouse. Conditions: treated twice weekly from 4 weeks, kidneys taken at 10 weeks. Here is the method: (§2) A. Transmission Electron Microscopy: Fresh external renal cortex was minced in 4% paraformaldehyde, allowed to fix for 2 hours, and stored at 5° C. in PBS (pH 7.4). The tissue was washed extensively (5 times for 10 minutes each at 4° C.) with 0.1M Sorenson's buffer (Sorenson's buffer was made by combining 100 ml of 200 mM monobasic sodium phosphate and 400 ml of 200 mM dibasic sodium phosphate with 500 ml of water, and adjusted to pH 7.4), and postfixed in 1% osmium tetroxide in Sorenson's buffer for 1 hour. The tissue was then dehydrated in graded ethanol (70%, then 80%, then 90%, then 100% for ten minutes each), and finally in propylene oxide and embedded in Poly/Bed 812 epoxy resin (Polysciences, Inc., Warrington, Pa.) following the procedures described by the manufacturer. In short, 42 ml of polybed 812 was mixed with 26 ml of dodecylsuccinic anhydride (DDSA, Polysciences, Inc.) and 24 ml of nadic methyl anhydride (Polysciences Inc.). […]
as §1

Series [3] relates to 129 Sv/J Alport mouse. Nature of the series: TGF-β1 inhibitors in 129 Sv/J Alport mouse, scanning electron microscopy of glomeruli. The format is in vivo. Conditions: 7 week old Alport mice, treated twice weekly from 3 weeks of age. The source says: B. Scanning Electron Microscopy: Small pieces (approximately 2 mm cubes) of kidney cortex were fixed in 3% phosphate buffered glutaraldehyde, then postfixed in 1% phosphate buffered osmium tetroxide. Samples were then dehydrated in graded ethanols, and critical point dried in carbon dioxide. The cubes were then cracked in pieces by stressing them with the edge of a razor blade, and mounted with glue onto stubs with the cracked surface facing upward. The surface was sputter coated with gold/palladium using well known procedures and visualized with a scanning electron microscope.
(§3) The experimental protocol was to inject with either FK506 (2 μg/g body weight, injected intraperitoneally, Fujisawa Pharmaceutical Co., Ltd., Osaka, Japan), or a soluble TGF-B1 receptor (25 μg/injection, intravenously through the tail vein, Biogen Inc., Cambridge, Mass.) twice weekly starting at 3 weeks of age. Kidneys were harvested at 7 weeks of age and subjected to the described analyses.
Some of the kidney specimen was processed for scanning electron microscopy. Glomeruli were exposed by freeze fracture of renal cortex, which removes the Bowman's capsule, exposing the outer layer of podocytes as they cover the capillary loops of the glomerulus. […]

Series [4] has as its system double knockout mice. Put plainly: Northern blot of kidney RNAs (matrix molecules, Timp) in double knockout mice treated with TGF-β1 inhibitors. The format is in vivo, mouse. Conditions: 10 week old double knockout mice; untreated show nine-fold reduction relative to control. Here is the method: A. Northern Blot Analysis: Kidneys were removed and snap frozen in liquid nitrogen and ground to a powder in liquid nitrogen using a mortar and pestle. The powder was solubilized in TRIZOL reagent (GibCo/BRL, Grand Island, N.Y.) using 5 ml of reagent per kidney. Total cellular RNA was extracted according to the manufacturer's instructions. Twenty micrograms (20 μg) of RNA was fractionated on a 1.0% agarose/formaldehyde/MOPS (3-(N-morpholino)propanesulfonic acid) gel by electrophoresis at 80V for 4 hours. Gels were soaked in water for 45 minutes, and transferred to Hybond N (uncharged nylon, New England Nuclear, Inc., Boston, Mass.) by capillary blot overnight using 750 mM ammonium acetate (in water) as a transfer buffer. The RNA was UV crosslinked to the blot using a Stratalinker (Stratagene, Inc., LaJolla, Calif.). […] The quality of the RNA preparations and the consistency of loading was assessed by staining gels with ethidium bromide and scanning the 18S and 28S ribosomal RNA bands using a Gel Imager 2000 digital imaging system instrument and software package (Applied Imaging, Santa Clara, Calif.). […] Quantitative densitometric scanning confirmed no more than a 10% variance in sample loading. […] Quantitative differences in expression were assessed by phosphorimage analysis using a BioRad GS-525 phosphorimager (Bio Rad, Inc., Hercules, Calif.), and subtracted for background hybridization. […]

Series [5] relates to 129 Sv/J Alport mouse. Put plainly: TGF-β1 inhibitors in 129 Sv/J Alport mouse, transmission electron microscopy of GBM ultrastructure. The note with it: 7 week old Alport mice, treated twice weekly from 3 weeks of age. The format is in vivo. As to the method:
as §2, with “Inc.). One and a half mls of 2,4,6 tri(dimethly aminomethyl) phenol was added as a catalyst, and the activated resin frozen in 10 ml aliquots until needed for embedding specimen. Glomeruli were identified in 1 μm (micron) sections stained with toluidine blue, and thin sections were cut at 70 nm (nanometer) thickness using a Reichert Jung Ultracut E ultramicrotome (Cambridge Instrument Co, Vienna, Austria).” for “Inc.).”

In series [6] the test system is double knockout (DKO) mice. Put plainly: TGF-β1 inhibitors in double knockout mice, urinary albumin (proteinuria) by gel electrophoresis. The format is in vivo, mouse. As to the method: Urine samples were collected at weekly intervals and 0.5 μl fractionated by electrophoresis through 10% denaturing acrylamide gels. The protein in the gels was stained with coomassie blue and photographed. Bovine serum albumin was used as a molecular weight standard.
Mice (DKO mice are null for both the collagen α3(IV) and integrin α1 genes) were injected with TGF-β1 inhibitors FK506 (2 μg/gram body weight, twice weekly, intraperitoneal injections) or Biogen's TGF-β1 soluble receptor (25 μg per injection, twice weekly, intravenous injections) starting at four weeks of age. The kidneys were taken at 10 weeks of age and analyzed. The 10 week time point was chosen since, in the double knockouts, the disease typically progresses to the point where significant irregular thickening of the GBM is observed, and the animals are beginning to progress towards end stage renal failure. Thus, if the TGF-β1 inhibitors are to provide additional protective benefits, those benefits should be evident at this stage in GBM disease progression. […] A typical example of these differences is illustrated in FIG. 14. […]
Proteinuria was examined in these same mice collected weekly during the course of treatment. Samples (equivalent to approximately one half of one microliter) were analyzed by electrophoresis on polyacrylamide gels. […]

The test system of series [7] is 129 Sv/J Alport mouse. Nature of the series: Dual immunofluorescence staining for laminin α2 chain in glomeruli of treated Alport mice. Format: in vivo. The note with it: 7 week old 129 Sv/J Alport mouse. Here is the method:
as §3
In dual fluorescence analysis, fresh renal cortex was embedded in Tissue Tek aqueous embedding compound, snap frozen, and cut at 4 microns on a cryostat. Slides were postfixed in cold (−20° C.) 100% acetone for 10 minutes, and then air dried overnight. Tissue was rehydrated by three washes in PBS for 10 minutes each. The primary antibodies were diluted together in 7% non-fat dry milk (BioRad). An anti-entactin antibody (Chemicon Inc.) was used as a known marker for glomerular basement membrane at a dilution of 1:200. The laminin α2 chain-specific antibody was a gift from Dr. Peter Yurchenco (Robert Wood Johnson Medical School, Piscataway, N.J.). The specificity of this antibody for the laminin α2 chain was illustrated in Cheng et al., J. Biol. Chem., 272:31525-31532, 1997. The antibody was used at a concentration of 1:10. Primary antibodies were allowed to react overnight at 4° C. in a humidified dish. […]

Regarding `C=CC[C@@H]1/C=C(\C)C[C@H](C)C[C@H](OC)[C@H]2O[C@@](O)(C(=O)C(=O)N3CCCC[C@H]3C(=O)O[C@H](/C(C)=C/[C@@H]3CC[C@@H](O)[C@H](OC)C3)[C@H](C)[C@@H](O)CC1=O)[C@H](C)C[C@@H]2OC` [FK506, tacrolimus], the “Collagen type I accumulation in interstitium of renal cortex” value in series [1] is “relative absence of collagen type I accumulation”. Further, in series [2], the “Focal GBM thickening and foot process effacement (transmission electron microscopy)” value is “marked reduction of both focal GBM thickening and foot process effacement”. Also, in series [3], the “Surface of the glomerulus / podocyte foot processes (scanning electron microscopy)” value was “looks much the same as that in the untreated Alport mouse”. Also, the “Timp-3 mRNA expression in kidney” value in series [4] is listed as “reduction in Timp-3 expression is not observed”. For the same compound, in series [5], the “GBM thickening (transmission electron microscopy)” value is recorded as “obvious lack of basement membrane thickening” and the “Podocyte foot process architecture (transmission electron microscopy)” value was “significant degree of swelling in the foot processes”. In addition, the “Performance of the glomerular filter (urinary albumin)” value in series [6] (double knockout mice, relative to untreated double knockout mice, urine collected weekly) is “markedly improved”. In addition, the “Urinary protein bands related to nephrotoxic effects” value in series [6] (normal and DKO mice treated with FK506) is “diffuse group of bands evident at every timepoint”. The “Accumulation of laminin α2 in the GBM” value in series [7] is given as “does not prevent the accumulation of laminin α2”.
